{
  "source": "PubChem BioAssay AID330",
  "about": "(DTP/NCI, 2004)",
  "tested_on": "P388 leukemia ip, CD2F1 mice, survival T/C",
  "assay": "NCI In Vivo Anticancer Drug Screen. Data for tumor model P388 Leukemia (intraperitoneal) in CD2F1 (CDF1) mice",
  "settings": "endpoint: median survival time, higher = longer survival",
  "summary_of_the_method": "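Mice carrying the transplanted tumor received test compound or vehicle. Survival was recorded in each group, and the value is the treated-group measurement divided by that of the vehicle-treated control group.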",
  "key": {"[1]": {"settings": "dose: 60.0 mg/kg/injection, schedule: Q01DX005 (ip), vehicle: saline with Tween-80"}, "[2]": {"settings": "dose: 120.0 mg/kg/injection, schedule: Q01DX005 (ip), vehicle: saline with Tween-80"}, "[3]": {"settings": "dose: 240.0 mg/kg/injection, schedule: Q01DX005 (ip), vehicle: saline with Tween-80"}},
  "note": "“And” between values parts separate entries of the source, which are not always exact repeats. Equal values may be shown once. Toxic doses and inconclusive results are not listed.",
  "data": [
    {"smiles": "NC(=O)/N=[N+](\\[O-])c1ccccc1", "values": [
      {"measurement": "T/C", "setting": "dose: 50.0 mg/kg/injection, schedule: Q04DX003 (ip), vehicle: Klucel (hydroxypropylcellulose) (HPC)", "value": "98 % of control"},
      {"measurement": "T/C", "setting": "dose: 100.0 mg/kg/injection, schedule: Q04DX003 (ip), vehicle: Klucel (hydroxypropylcellulose) (HPC)", "value": "94 % of control"}
    ]},
    {"smiles": "COc1ccc(S(=O)(=O)c2coc3ccc(C)cc3c2=O)cc1", "values": [
      {"measurement": "T/C", "setting": "[1]", "value": "100 % of control"},
      {"measurement": "T/C", "setting": "[2]", "value": "96 % of control"},
      {"measurement": "T/C", "setting": "[3]", "value": "95 % of control"}
    ]},
    {"smiles": "COc1ccc(N2CCN(/C=C3\\Cc4ccc(F)cc4C3=O)CC2)cc1", "values": [
      {"measurement": "T/C", "setting": "dose: 100.0 mg/kg/injection, schedule: Q04DX002 (ip), vehicle: Klucel (hydroxypropylcellulose) (HPC)", "value": "103 % of control"},
      {"measurement": "T/C", "setting": "dose: 200.0 mg/kg/injection, schedule: Q04DX002 (ip), vehicle: Klucel (hydroxypropylcellulose) (HPC)", "value": "99 % of control"},
      {"measurement": "T/C", "setting": "dose: 400.0 mg/kg/injection, schedule: Q04DX002 (ip), vehicle: Klucel (hydroxypropylcellulose) (HPC)", "value": "95 % of control"}
    ]},
    {"smiles": "Cc1c(Cl)cccc1NC(=O)Nc1nccs1", "values": [
      {"measurement": "T/C", "setting": "dose: 25.0 mg/kg/injection, schedule: Q01DX009 (ip), vehicle: Klucel (hydroxypropylcellulose) (HPC)", "value": "90 % of control"},
      {"measurement": "T/C", "setting": "dose: 50.0 mg/kg/injection, schedule: Q01DX009 (ip), vehicle: Klucel (hydroxypropylcellulose) (HPC)", "value": "93 % of control"},
      {"measurement": "T/C", "setting": "dose: 100.0 mg/kg/injection, schedule: Q01DX009 (ip), vehicle: Klucel (hydroxypropylcellulose) (HPC)", "value": "100 % of control"}
    ]},
    {"smiles": "CNC(=O)Cc1ccc2cc(OC)c(OC)cc2c1", "values": [
      {"measurement": "T/C", "setting": "dose: 50.0 mg/kg/injection, schedule: Q01DX009 (ip), vehicle: saline with Tween-80", "value": "90 % of control"},
      {"measurement": "T/C", "setting": "dose: 100.0 mg/kg/injection, schedule: Q01DX009 (ip), vehicle: saline with Tween-80", "value": "95 % of control"},
      {"measurement": "T/C", "setting": "dose: 200.0 mg/kg/injection, schedule: Q01DX009 (ip), vehicle: saline with Tween-80", "value": "90 % of control"}
    ]},
    {"smiles": "COc1ccccc1C1OC2=C(Nc3ccc([N+](=O)[O-])cc3N2)C1=O", "note": "(stereo not drawn)", "values": [
      {"measurement": "T/C", "setting": "dose: 30.0 mg/kg/injection, schedule: Q01DX005 (ip), vehicle: Klucel (hydroxypropylcellulose) (HPC)", "value": "93 % of control"},
      {"measurement": "T/C", "setting": "dose: 60.0 mg/kg/injection, schedule: Q01DX005 (ip), vehicle: Klucel (hydroxypropylcellulose) (HPC)", "value": "92 % of control"},
      {"measurement": "T/C", "setting": "dose: 120.0 mg/kg/injection, schedule: Q01DX005 (ip), vehicle: Klucel (hydroxypropylcellulose) (HPC)", "value": "92 % of control and 96 % of control"}
    ]},
    {"smiles": "CCC(=O)C(C)C1(C(=O)OC)NC(=S)NC(=O)C1C#N", "note": "(stereo not drawn)", "values": [
      {"measurement": "T/C", "setting": "dose: 7.5 mg/kg/injection, schedule: Q01DX005 (ip), vehicle: saline with Tween-80", "value": "102 % of control"},
      {"measurement": "T/C", "setting": "dose: 15.0 mg/kg/injection, schedule: Q01DX005 (ip), vehicle: saline with Tween-80", "value": "99 % of control"},
      {"measurement": "T/C", "setting": "dose: 30.0 mg/kg/injection, schedule: Q01DX005 (ip), vehicle: saline with Tween-80", "value": "103 % of control"}
    ]},
    {"smiles": "COC(=O)C(=O)C(C#N)c1ccc(OC)c(OC)c1", "note": "(stereo not drawn)", "values": [
      {"measurement": "T/C", "setting": "[1]", "value": "99 % of control"},
      {"measurement": "T/C", "setting": "[2]", "value": "104 % of control"},
      {"measurement": "T/C", "setting": "[3]", "value": "95 % of control"}
    ]},
    {"smiles": "CCOC(=O)C/[N+]([O-])=C/c1ccccc1", "values": [
      {"measurement": "T/C", "setting": "dose: 12.5 mg/kg/injection, schedule: Q01DX009 (ip), vehicle: other", "value": "100 % of control"},
      {"measurement": "T/C", "setting": "dose: 25.0 mg/kg/injection, schedule: Q01DX009 (ip), vehicle: other", "value": "98 % of control"},
      {"measurement": "T/C", "setting": "dose: 50.0 mg/kg/injection, schedule: Q01DX009 (ip), vehicle: other", "value": "117 % of control"},
      {"measurement": "T/C", "setting": "dose: 100.0 mg/kg/injection, schedule: Q01DX009 (ip), vehicle: other", "value": "100 % of control"},
      {"measurement": "T/C", "setting": "dose: 200.0 mg/kg/injection, schedule: Q01DX009 (ip), vehicle: other", "value": "100 % of control"}
    ]},
    {"smiles": "N#CCS(=O)(=O)OCCCl", "values": [
      {"measurement": "T/C", "setting": "dose: 12.5 mg/kg/injection, schedule: Q01DX005 (ip), vehicle: saline with Tween-80", "value": "120 % of control"},
      {"measurement": "T/C", "setting": "dose: 37.5 mg/kg/injection, schedule: Q01DX005 (ip), vehicle: saline with Tween-80", "value": "151 % of control"}
    ]},
    {"smiles": "N#Cc1ccc(NN=NCCCCCl)cc1", "values": [
      {"measurement": "T/C", "setting": "dose: 3.12 mg/kg/injection, schedule: Q01DX005 (ip), vehicle: distilled water + Tween-80", "value": "94 % of control"},
      {"measurement": "T/C", "setting": "dose: 6.25 mg/kg/injection, schedule: Q01DX005 (ip), vehicle: distilled water + Tween-80", "value": "88 % of control"},
      {"measurement": "T/C", "setting": "dose: 12.5 mg/kg/injection, schedule: Q01DX005 (ip), vehicle: distilled water + Tween-80", "value": "91 % of control"},
      {"measurement": "T/C", "setting": "dose: 25.0 mg/kg/injection, schedule: Q01DX005 (ip), vehicle: distilled water + Tween-80", "value": "94 % of control"},
      {"measurement": "T/C", "setting": "dose: 50.0 mg/kg/injection, schedule: Q01DX005 (ip), vehicle: distilled water + Tween-80", "value": "105 % of control"}
    ]},
    {"smiles": "CCCCCCCCCc1ccc(OCCOCCOCCOCCOCCOCCOCCOCCOCCOC(C)N2CCCC2=O)cc1", "note": "(stereo not drawn)", "values": [
      {"measurement": "T/C", "setting": "dose: 6.25 mg/kg/injection, schedule: Q01DX009 (ip), vehicle: saline with Tween-80", "value": "110 % of control"},
      {"measurement": "T/C", "setting": "dose: 12.5 mg/kg/injection, schedule: Q01DX009 (ip), vehicle: saline with Tween-80", "value": "115 % of control"},
      {"measurement": "T/C", "setting": "dose: 25.0 mg/kg/injection, schedule: Q01DX009 (ip), vehicle: saline with Tween-80", "value": "120 % of control"}
    ]}
  ]
}
